Experimental data from PMC5073322, “Novel Natural Product-like Caged Xanthones Bearing a Carbamate Moiety Exhibit Antitumor Potency and Anti-Angiogenesis Activity In vivo” (Scientific Reports, 2016).

Tests used:
HepG2 = assay: MTT antiproliferative assay, HepG2; conditions: read-out: IC50 HepG2; MTT, 72 h
Procedure: (§3) The inhibition of tumour cell growth was measured by a modified tetrazolium (MTT) salt assay, as previously described[39]. Cells were cultured in a 96-well plate and treated with culture medium alone or different concentrations of the compounds. The cells were incubated for 72 h, and then, the MTT assay reagent was added. After a 4 h incubation, the formazan product was quantitated at 570 nm. The IC50 values (the concentrations that gave rise to 50% inhibition of cell viability) were calculated using GraphPad Prism 6 using a variable slope (four parameters).

A549 = assay: MTT antiproliferative assay, A549; conditions: read-out: IC50 A549; MTT, 72 h
Procedure: as §3

VEGF = VEGF mRNA by real-time RT-PCR; assay type: cell-based; conditions: hypoxia, VEGF/GAPDH
Procedure: (§1) Figure 9 (A) The caged compounds (50 μM) inhibited the Hsp90 ATPase activity in a HTRF-based inhibition assay. (B) The IC50 values for the inhibition of Hsp90 ATPase by 8n, 8o and GA as detected by the HTRF Transcreener ADP kit. The test compounds were diluted to obtain a range of concentrations and incubated with Hsp90 and ATP. The amount of ADP generated was detected. (C) Western blots of the Hsp90 client proteins after HepG2 cells were treated with the indicated concentrations of 8n for 24 h. (D) The mRNA expression of VEGF was determined by real-time quantitative reverse-transcriptase polymerase chain reaction (RT-PCR) and analysed by the delta Ct method. The bars represent the means with standard error of the mean (SEM) and the fold change in the VEGF/GAPDH ratio relative to the vehicle-treated group. The different significance levels are indicated as **P < 0.05.
(§2) The influence of 8n on the degradation of Hsp90 client proteins was monitored by WB analysis. HepG2 cells were treated with different concentrations of 8n for 24 h. […] HIF-1α, as a key modulator of angiogenesis and an important client protein of Hsp90, was also examined, and the expression of HIF-1α decreased after treatment with 8n.

HUVECs = assay: Wound healing assay (hypoxia-induced migration); assay type: cell-based, human; conditions: 0.01, 0.05 and 0.25 μM, 24 h
Procedure: GA was reported to inhibit tumour angiogenesis and may be a viable drug candidate for anti-angiogenesis and anticancer therapies. Therefore, the anti-angiogenesis activity of the caged xanthone derivative 8n was evaluated. Human umbilical vein endothelial cells (HUVECs) were used in all experiments. Cell migration is critical for endothelial cells to form blood vessels during angiogenesis, tumour growth and metastasis. […] Endothelial cell invasion is a critical part of angiogenesis; therefore, a transwell assay was performed to evaluate the ability of inactivated HUVECs to pass through the transwell membrane barrier in the presence of 8n.
Figure 8 8n had anti-angiogenesis activity in vitro and in vivo. (A) A wound-healing assay was used to evaluate the motility of HUVECs after treatment with 8n for 24 h. (B) Changes in cell motility were evaluated using a transwell assay of cell migration and invasion. (C) The effect of 8n on tube formation by HUVECs. HUVECs were incubated with 8n for 6 h and then transferred to Matrigel for 6 h. (D) Zebrafish embryos treated with blank control or 1, 10, or 50 μg/ml of 8n.
HUVECs were incubated in a 6-well plate until full confluence. […] Then, the wound edges were photographed under an inverted-phase microscope and measured.

HepG2 tumours = assay: HepG2 hepatoblastoma xenograft in nude mice; assay type: in vivo; conditions: 20 days; for inhibition of the tumour volume: IV, twice-daily
Procedure: Given the in vitro anti-tumour cell activity of 8n, we continued to evaluate its in vivo effect in hepatoblastoma xenograft models using previously reported methods, and the water-soluble anti-cancer drug 5-fluorouracil (5-FU) was used as a positive control. After tumours were established, the mice were IV injected with 2.5, 5, 10 or 50 mg/kg 8n; the lead compound DDO-6101 and antitumour drug 5-FU were used as controls. All mice had normal weights and quality of life in in vivo tests. […] The in vivo activity of 8n was also evaluated after oral administration. […] This observation may be attributed to the improved physicochemical properties of 8n compared to those of DDO-6101, such as aqueous solubility and cell membrane permeability, which were provided by modification with the carbamate moiety.
Figure 7 (A) The tumour diameters were measured and used to calculate the tumour volumes. The HepG2 xenograft-bearing mice were intravenously injected with 2.5, 5, 10 and 50 mg/kg 8n for 20 days. (B) After 20 days, mice were sacrificed and the individual tumours were weighed. *p < 0.05, […]; Student’s t-test (n = 6). (C) The tumour diameters were measured and used to calculate the tumour volumes. The HepG2 xenograft-bearing mice were orally administered 50 mg/kg 8n, 50 mg/kg DDO-6101 or 10 mg/kg 5-FU for 20 days.
All studies were performed in compliance with the relevant guidelines and regulations. Tumours on female nude mice were established by injecting 1×10^7 HepG2 cells on the dorsal surface. After four weeks, tumours of approximately 150 mm^3 were cut into pieces that were 3 mm×3 mm×3 mm in size and were then implanted in the dorsal surface of other female nude mice. One week later, mice implanted with xenografts of 100 mm^3 were selected, randomized, and […] injected with 2.5, 5, or 10-mg/kg 8n or vehicle daily for another three weeks. The tumour dimensions were measured daily with vernier calipers, and the tumour volumes were calculated using the formula: volume = (width)^2 × length/2.

[1] = tested on: Hsp90 client proteins in HepG2 cells; assay: Western blot of Hsp90 client proteins; assay type: cell-based, human; conditions: HepG2, 24 h
Procedure: as §1, §2
The cells were washed with PBS and lysed with ice-cold lysis buffer supplemented with protease inhibitors (Roche) for 30 min. The protein content of the supernatants of lysates was determined using a bicinchoninic acid assay. Equal 50 μg total protein samples were separated by sodium dodecyl sulphate polyacrylamide gel electrophoresis (SDS−PAGE) and then transferred onto PVDF membranes (Millipore) at 90 volts for 90 mins. After blocking the membrane with 5% skim milk for 1 h at RT, the membranes were incubated with the primary antibody overnight at 4 °C. Then, the membranes were incubated with a DyLight 800-labeled secondary antibody in the dark for 1 h. Detection of specific proteins was performed with the Odyssey infrared imaging system (LI-COR, Lincoln, Nebraska, USA).

With `CC(C)=CCC12OC(C)(C)C3CC(C=C4C(=O)c5c(OC(=O)N6CCC(N7CCCCC7)CC6)cccc5OC431)C2=O` (centres unmarked) [Compound 8n] the IC50 (HepG2) was 1.32 ± 0.45 µM, the IC50 (A549) was 7.23 ± 0.56 µM and the “hypoxic induction of VEGF expression (mRNA)” value (VEGF) was “substantially repressed”. The “hypoxia-induced migration of HUVECs” value (HUVECs) was “suppressed hypoxia-induced migration in a concentration-dependent manner”, the “inhibition of the tumour volume” value (HepG2 tumours; 2.5 mg/kg) was 27.97% and the “inhibition of the tumour volume” value (HepG2 tumours; 5 mg/kg) was 38.50%. The “inhibition of the tumour volume” value (HepG2 tumours; 10 mg/kg) was 48.36%, the “inhibition of tumour growth” value (HepG2 tumours; 50 mg/kg, oral, daily) was 30.12% and the “expression levels of client proteins HER-2, Akt and Erk1/2” value [1] was “dramatically reduced”. The “expression of HIF-1α” value [1] was “decreased” and the “expression of Hsp70” value [1] was “changed little”.
